In ChEMBL document CHEMBL1201862, “PubChem BioAssay data set” (2004):
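In this assay, cells in 96-well plates receive the compound at five concentrations for 48 hours. Endpoints are linearly interpolated between the surrounding concentrations. GI50: concentration for 50% inhibition of growth.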 Active and inactive are the calls of the source. Cut-off read from the data, not from the text of the source: active = GI50 up to about 1.1 µM and inactive = higher.

Assays:
Assay in all cases: NCI tumour cell line growth inhibition, 48 h
UACC-62 = tested on: UACC-62
MDA-MB-435 = tested on: MDA-MB-435
MOLT-4 = tested on: MOLT-4
HL-60 = tested on: HL-60
HCT-15 = tested on: HCT-15
SK-MEL-2 = tested on: SK-MEL-2
SN12C = tested on: SN12C
IGROV-1 = tested on: IGROV-1
SF-539 = tested on: SF-539
LOX IMVI = tested on: LOX IMVI
RXF 393 = tested on: RXF 393
Hs-578T = tested on: Hs-578T
786-0 = tested on: 786-0
SK-MEL-5 = tested on: SK-MEL-5
HOP-62 = tested on: HOP-62
NCI-H522 = tested on: NCI-H522
SNB-75 = tested on: SNB-75
M14 = tested on: M14
SK-MEL-28 = tested on: SK-MEL-28
HCC 2998 = tested on: HCC 2998

Measured: GI50

COc1c(Cl)c(=O)oc2ccc(Cl)cc12
inactive: UACC-62 > 100 µM | MDA-MB-435 > 100 µM | MOLT-4 > 100 µM | HL-60 > 100 µM | SK-MEL-2 > 100 µM | SN12C > 100 µM | IGROV-1 > 100 µM | SF-539 > 100 µM | LOX IMVI > 100 µM | RXF 393 > 100 µM | Hs-578T > 100 µM | 786-0 > 100 µM | SK-MEL-5 > 100 µM | HOP-62 > 100 µM | NCI-H522 > 100 µM | SNB-75 39.9 µM | M14 > 100 µM | SK-MEL-28 > 100 µM | HCC 2998 > 100 µM
> 100 µM: HCT-15

O=S(=O)(CC#CCS(=O)(=O)c1ccccc1)c1ccccc1
active: MOLT-4 0.959 µM | 786-0 0.973 µM | NCI-H522 0.659 µM
1.35 µM: HCT-15
inactive: UACC-62 3.55 µM | MDA-MB-435 1.72 µM | HL-60 3.1 µM | SK-MEL-2 5.69 µM | SN12C 4.28 µM | IGROV-1 1.44 µM | SF-539 2.48 µM | LOX IMVI 1.51 µM | RXF 393 1.67 µM | Hs-578T 5.14 µM | SK-MEL-5 4.9 µM | HOP-62 5.71 µM | SNB-75 1.48 µM | M14 1.86 µM | SK-MEL-28 7.46 µM | HCC 2998 18.7 µM

CCOC(=O)CC/C(C)=N\n1c(Cc2ccc(Cl)cc2)n[nH]c1=O
inactive: UACC-62 > 100 µM | MDA-MB-435 > 100 µM | MOLT-4 > 100 µM | HL-60 > 100 µM | SK-MEL-2 > 100 µM | SN12C > 100 µM | IGROV-1 > 100 µM | SF-539 > 100 µM | LOX IMVI > 100 µM | RXF 393 > 100 µM | Hs-578T > 100 µM | 786-0 > 100 µM | SK-MEL-5 > 100 µM | HOP-62 > 100 µM | NCI-H522 > 100 µM | SNB-75 > 100 µM | M14 > 100 µM | SK-MEL-28 > 100 µM | HCC 2998 > 100 µM
> 100 µM: HCT-15

CC(=O)Nc1ccc2c3c(cc(O)c2c1)N(C(=O)CCCC(=O)N1CC(CCl)c2c1cc(O)c1cc(NC(C)=O)ccc21)CC3CCl (stereo not given)
active: UACC-62 < 0.01 µM | MDA-MB-435 < 0.01 µM | MOLT-4 < 0.01 µM | HL-60 < 0.01 µM | SK-MEL-2 < 0.01 µM | SN12C < 0.01 µM | IGROV-1 0.0102 µM | SF-539 0.0223 µM | LOX IMVI < 0.01 µM | RXF 393 < 0.01 µM | Hs-578T 0.0285 µM | 786-0 < 0.01 µM | SK-MEL-5 0.0108 µM | HOP-62 < 0.01 µM | NCI-H522 < 0.01 µM | SNB-75 < 0.01 µM | M14 < 0.01 µM | SK-MEL-28 0.0201 µM | HCC 2998 0.0122 µM
0.0773 µM: HCT-15

C/C(=N\NC(=S)NC(C)(C)C)c1ccccn1
inactive: MDA-MB-435 1.52 µM | SF-539 1.88 µM | Hs-578T 1.12 µM | SNB-75 11.7 µM | SK-MEL-28 3.66 µM
< 0.01 µM: HCT-15
active: UACC-62 0.332 µM | MOLT-4 < 0.01 µM | HL-60 < 0.01 µM | SK-MEL-2 0.408 µM | SN12C 0.295 µM | IGROV-1 < 0.01 µM | LOX IMVI < 0.01 µM | RXF 393 < 0.01 µM | 786-0 < 0.0406 µM | SK-MEL-5 0.153 µM | HOP-62 < 0.0222 µM | NCI-H522 0.191 µM | M14 < 0.0314 µM | HCC 2998 0.235 µM

Fc1ccc2nc3n(c2c1)C(c1c(F)cccc1F)SC3 (stereo not given)
51.8 µM: HCT-15
inactive: UACC-62 82.4 µM | MDA-MB-435 40.5 µM | MOLT-4 21.3 µM | HL-60 17.7 µM | SK-MEL-2 96.8 µM | SN12C 77.4 µM | IGROV-1 > 100 µM | SF-539 > 100 µM | LOX IMVI 50.7 µM | RXF 393 53.7 µM | Hs-578T > 100 µM | 786-0 > 100 µM | SK-MEL-5 26.7 µM | HOP-62 > 100 µM | NCI-H522 28.1 µM | SNB-75 31.6 µM | M14 49.1 µM | SK-MEL-28 > 100 µM | HCC 2998 > 100 µM
